According to the supplement of paper PMC10307832:

Legend:
Test in all cases: relative viability (nuclei count vs DMSO), 5 days (fraction); higher = more cells survive
NCI-H1944 = system: NCI-H1944
Procedure, shortened: (§1)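 The day after seeding in 1536-well plates, lung cancer cell lines were treated by pin tool with a single drug, or with a fixed anchor-drug dose together with five library-drug doses (not always all listed) in √10 steps. After 5 days, a combined fix-and-stain solution (final 0.05% Triton X-100, 1% formaldehyde, 1 ug/ml Hoechst) was added. Nuclei counted on 4× images gave relative viability as treated counts over vehicle counts, reported as the median of duplicate plates.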

HOP-62 = system: HOP-62
Procedure, shortened: as §1

A-427 = system: A-427
Procedure, shortened: as §1

PC-3 [JPC-3] = system: PC-3 [JPC-3]
Procedure, shortened: as §1

SK-MES-1 = system: SK-MES-1
Procedure, shortened: as §1

NCI-H3122 = system: NCI-H3122
Procedure, shortened: as §1

NCI-H596 = system: NCI-H596
Procedure, shortened: as §1

NCI-H1993 = system: NCI-H1993
Procedure, shortened: as §1

NCI-H2009 = system: NCI-H2009
Procedure, shortened: as §1

NCI-H2170 = system: NCI-H2170
Procedure, shortened: as §1

NCI-H322M = system: NCI-H322M
Procedure, shortened: as §1

LXF-289 = system: LXF-289
Procedure, shortened: as §1

ABC-1 = system: ABC-1
Procedure, shortened: as §1

LK-2 = system: LK-2
Procedure, shortened: as §1

HARA = system: HARA
Procedure, shortened: as §1

NCI-H2228 = system: NCI-H2228
Procedure, shortened: as §1

NCI-H1792 = system: NCI-H1792
Procedure, shortened: as §1

EMC-BAC-2 = system: EMC-BAC-2
Procedure, shortened: as §1

SW 1573 = system: SW 1573
Procedure, shortened: as §1

NCI-H727 = system: NCI-H727
Procedure, shortened: as §1

Which relative viability (NCI-H1944; first compound 0.0002 µM) does the source give for `CC(=O)O[C@@]12CO[C@@H]1C[C@H](O)[C@@]1(C)C(=O)[C@H](O)C3=C(C)[C@@H](OC(=O)[C@H](O)[C@@H](NC(=O)OC(C)(C)C)c4ccccc4)C[C@@](O)([C@@H](OC(=O)c4ccccc4)[C@H]21)C3(C)C` [Docetaxel] + C[C@@H](Oc1cc(-c2cnn(C3CCNCC3)c2)cnc1N)c1c(Cl)ccc(F)c1Cl [Crizotinib] (partner 1 µM) here?
Its relative viability is 1.13.

What about the relative viability (NCI-H1944; first compound 0.000632 µM) of the same molecule?
The relative viability was 1.01.

What about the relative viability (NCI-H1944; first compound 0.002 µM) of the same molecule?
The relative viability was 0.956.

And the relative viability (NCI-H1944; first compound 0.006325 µM)?
The relative viability was 0.192.

And the relative viability (NCI-H1944; first compound 0.02 µM)?
Its relative viability is 0.137.

And the relative viability (HOP-62; first compound 0.0002 µM)?
Its relative viability is 0.903.

And the relative viability (HOP-62; first compound 0.000632 µM)?
The relative viability was 0.386.

What about the relative viability (HOP-62; first compound 0.02 µM) of the same molecule?
The relative viability was 0.129.

What about the relative viability (A-427; first compound 0.0002 µM) of the same molecule?
Its relative viability is 0.998.

And the relative viability (A-427; first compound 0.000632 µM)?
The relative viability was 0.859.

And the relative viability (A-427; first compound 0.002 µM)?
Its relative viability is 0.506.

What about the relative viability (A-427; first compound 0.006325 µM) of the same molecule?
Its relative viability is 0.221.

What about the relative viability (A-427; first compound 0.02 µM) of the same molecule?
Its relative viability is 0.167.

And the relative viability (PC-3 [JPC-3]; first compound 0.0002 µM)?
Its relative viability is 0.966.

What about the relative viability (PC-3 [JPC-3]; first compound 0.000632 µM) of the same molecule?
Its relative viability is 0.918.

And the relative viability (PC-3 [JPC-3]; first compound 0.002 µM)?
Its relative viability is 0.635.

And the relative viability (PC-3 [JPC-3]; first compound 0.006325 µM)?
Its relative viability is 0.223.

What about the relative viability (PC-3 [JPC-3]; first compound 0.02 µM) of the same molecule?
Its relative viability is 0.172.

What about the relative viability (SK-MES-1; first compound 0.0002 µM) of the same molecule?
The relative viability was 0.937.

And the relative viability (SK-MES-1; first compound 0.000632 µM)?
The relative viability was 0.845.

What about the relative viability (SK-MES-1; first compound 0.002 µM) of the same molecule?
Its relative viability is 0.287.

And the relative viability (SK-MES-1; first compound 0.006325 µM)?
The relative viability was 0.221.

And the relative viability (SK-MES-1; first compound 0.02 µM)?
Its relative viability is 0.177.

And the relative viability (NCI-H3122; first compound 0.0002 µM)?
The relative viability was 0.241.

And the relative viability (NCI-H3122; first compound 0.000632 µM)?
The relative viability was 0.257.

And the relative viability (NCI-H3122; first compound 0.002 µM)?
Its relative viability is 0.26.

And the relative viability (NCI-H3122; first compound 0.006325 µM)?
The relative viability was 0.207.

And the relative viability (NCI-H3122; first compound 0.02 µM)?
The relative viability was 0.178.

And the relative viability (NCI-H596; first compound 0.0002 µM)?
Its relative viability is 0.986.

And the relative viability (NCI-H596; first compound 0.000632 µM)?
Its relative viability is 0.798.

And the relative viability (NCI-H596; first compound 0.002 µM)?
The relative viability was 1.01.

What about the relative viability (NCI-H596; first compound 0.006325 µM) of the same molecule?
Its relative viability is 0.475.

What about the relative viability (NCI-H596; first compound 0.02 µM) of the same molecule?
The relative viability was 0.462.

And the relative viability (NCI-H1993; first compound 0.0002 µM)?
The relative viability was 0.93.

And the relative viability (NCI-H1993; first compound 0.000632 µM)?
Its relative viability is 0.787.

What about the relative viability (NCI-H1993; first compound 0.002 µM) of the same molecule?
The relative viability was 0.791.

What about the relative viability (NCI-H1993; first compound 0.006325 µM) of the same molecule?
Its relative viability is 0.537.

And the relative viability (NCI-H1993; first compound 0.02 µM)?
The relative viability was 0.508.

And the relative viability (NCI-H2009; first compound 0.0002 µM)?
Its relative viability is 0.95.

What about the relative viability (NCI-H2009; first compound 0.000632 µM) of the same molecule?
The relative viability was 1.03.

And the relative viability (NCI-H2009; first compound 0.002 µM)?
The relative viability was 0.426.

What about the relative viability (NCI-H2009; first compound 0.006325 µM) of the same molecule?
Its relative viability is 0.252.

What about the relative viability (NCI-H2009; first compound 0.02 µM) of the same molecule?
Its relative viability is 0.174.

And the relative viability (NCI-H2170; first compound 0.0002 µM)?
The relative viability was 1.04.

And the relative viability (NCI-H2170; first compound 0.000632 µM)?
The relative viability was 0.999.

What about the relative viability (NCI-H2170; first compound 0.002 µM) of the same molecule?
Its relative viability is 0.671.

And the relative viability (NCI-H2170; first compound 0.006325 µM)?
The relative viability was 0.304.

What about the relative viability (NCI-H2170; first compound 0.02 µM) of the same molecule?
The relative viability was 0.199.

And the relative viability (NCI-H322M; first compound 0.0002 µM)?
The relative viability was 0.817.

What about the relative viability (NCI-H322M; first compound 0.000632 µM) of the same molecule?
Its relative viability is 0.91.

And the relative viability (NCI-H322M; first compound 0.002 µM)?
The relative viability was 0.71.

What about the relative viability (NCI-H322M; first compound 0.006325 µM) of the same molecule?
Its relative viability is 0.233.

And the relative viability (NCI-H322M; first compound 0.02 µM)?
The relative viability was 0.405.

What about the relative viability (LXF-289; first compound 0.0002 µM) of the same molecule?
The relative viability was 0.819.

What about the relative viability (LXF-289; first compound 0.000632 µM) of the same molecule?
The relative viability was 0.483.

And the relative viability (LXF-289; first compound 0.002 µM)?
Its relative viability is 0.452.

And the relative viability (LXF-289; first compound 0.006325 µM)?
The relative viability was 0.119.

And the relative viability (LXF-289; first compound 0.02 µM)?
Its relative viability is 0.139.

What about the relative viability (ABC-1; first compound 0.0002 µM) of the same molecule?
Its relative viability is 1.04.

And the relative viability (ABC-1; first compound 0.000632 µM)?
Its relative viability is 0.78.

What about the relative viability (ABC-1; first compound 0.002 µM) of the same molecule?
Its relative viability is 0.274.

And the relative viability (ABC-1; first compound 0.006325 µM)?
Its relative viability is 0.275.

And the relative viability (ABC-1; first compound 0.02 µM)?
The relative viability was 0.242.

And the relative viability (LK-2; first compound 0.0002 µM)?
Its relative viability is 0.209.

And the relative viability (LK-2; first compound 0.000632 µM)?
The relative viability was 0.202.

And the relative viability (LK-2; first compound 0.002 µM)?
The relative viability was 0.228.

What about the relative viability (LK-2; first compound 0.006325 µM) of the same molecule?
The relative viability was 0.213.

What about the relative viability (LK-2; first compound 0.02 µM) of the same molecule?
The relative viability was 0.228.

And the relative viability (HARA; first compound 0.0002 µM)?
Its relative viability is 0.903.

And the relative viability (HARA; first compound 0.000632 µM)?
Its relative viability is 0.364.

What about the relative viability (HARA; first compound 0.002 µM) of the same molecule?
The relative viability was 0.312.

What about the relative viability (HARA; first compound 0.006325 µM) of the same molecule?
The relative viability was 0.0907.

And the relative viability (HARA; first compound 0.02 µM)?
The relative viability was 0.104.

And the relative viability (NCI-H2228; first compound 0.0002 µM)?
The relative viability was 0.358.

What about the relative viability (NCI-H2228; first compound 0.000632 µM) of the same molecule?
Its relative viability is 0.292.

And the relative viability (NCI-H2228; first compound 0.002 µM)?
Its relative viability is 0.22.

What about the relative viability (NCI-H2228; first compound 0.006325 µM) of the same molecule?
Its relative viability is 0.278.

What about the relative viability (NCI-H2228; first compound 0.02 µM) of the same molecule?
Its relative viability is 0.159.

What about the relative viability (NCI-H1792; first compound 0.0002 µM) of the same molecule?
The relative viability was 0.929.

And the relative viability (NCI-H1792; first compound 0.000632 µM)?
Its relative viability is 0.905.

What about the relative viability (NCI-H1792; first compound 0.002 µM) of the same molecule?
Its relative viability is 0.646.

And the relative viability (NCI-H1792; first compound 0.02 µM)?
Its relative viability is 0.115.

And the relative viability (EMC-BAC-2; first compound 0.0002 µM)?
The relative viability was 0.651.

And the relative viability (EMC-BAC-2; first compound 0.000632 µM)?
The relative viability was 0.401.

And the relative viability (EMC-BAC-2; first compound 0.002 µM)?
Its relative viability is 0.404.

And the relative viability (EMC-BAC-2; first compound 0.02 µM)?
The relative viability was 0.161.

What about the relative viability (SW 1573; first compound 0.0002 µM) of the same molecule?
Its relative viability is 0.737.

And the relative viability (SW 1573; first compound 0.000632 µM)?
Its relative viability is 0.307.

What about the relative viability (SW 1573; first compound 0.006325 µM) of the same molecule?
The relative viability was 0.218.

And the relative viability (SW 1573; first compound 0.02 µM)?
Its relative viability is 0.203.

And the relative viability (NCI-H727; first compound 0.0002 µM)?
Its relative viability is 0.862.

And the relative viability (NCI-H727; first compound 0.000632 µM)?
The relative viability was 0.815.

What about the relative viability (NCI-H727; first compound 0.002 µM) of the same molecule?
The relative viability was 0.344.

What about the relative viability (NCI-H727; first compound 0.006325 µM) of the same molecule?
The relative viability was 0.298.

What about the relative viability (NCI-H727; first compound 0.02 µM) of the same molecule?
Its relative viability is 0.24.
